Experimental data: US10231956B2, “3-(1H-pyrrolo[3,2-C]pyridin-2-YL)-1 H-pyrazolo[4,3-B]pyridines and therapeutic uses thereof” (Samumed, LLC, priority 2015, dated 2019)
pEC50: −log10 of the molar value.

Legend:
[1] = system: primary human fibroblasts derived from IPF patients (LL29 cells); assay: Inhibition of fibrotic process: αSMA staining in TGF-β1 treated LL29 fibroblasts; type: cell-based; details: Fibroblast; for pEC50: 96 h, TGF-β1 20 ng/mL, 4 days, % cells positive for αSMA
Method in brief: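 LL29 cells at 1,500/well in F12 with 1% FBS, compounds at 1 μM–1.87 nM (11-point, 0.1% DMSO), TGF-β1 20 ng/mL added 1 h later, 4 days at 37 °C. SYTOX-positive cells excluded; % αSMA-positive cells by immunofluorescence imaging, normalized to TGF-β1/DMSO wells, triplicates fitted for EC50; above 10 μM, % inhibition at 10 μM given.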

IL-6 = IL-6 inhibition in LPS-stimulated THP-1 cells (HTRF); type: cell-based; details: Homo sapiens; for pEC50: LPS 500 ng/mL, 22 hours, IL6 HTRF

SMILES	pEC50 [1]	pEC50 (IL-6)	inhibition at 10 µM ([1]; given for EC50 >10 μM, TGF-β1, αSMA, 10 μM, read-out: percent inhibition at 10 μM) [%]	inhibition at 10 µM (IL-6; given for EC50 >10 μM, LPS, IL6, 10 μM, read-out: percent inhibition at 10 μM) [%]
CN(C)Cc1cncc(-c2ccc3[nH]nc(-c4cc5c(N6CCCCC6)nccc5[nH]4)c3n2)c1 [Compound 181, N,N-Dimethyl-1-(5-(3-(4-(piperidin-1l-yl)-1H-pyrrolo[3,2-c]pyridin-2-yl)-1H-pyrazolo[4,3-b]pyridin-5-yl)pyridin-3-yl)methanamine]	5.80	5.66		
CS(=O)(=O)NCc1cc(F)cc(-c2nccc3[nH]c(-c4n[nH]c5ccc(-c6cncc(NC(=O)Cc7ccccc7)c6)nc45)cc23)c1 [Compound 486, N-(5-(3-(4-(3-Fluoro-5-(methylsulfonamidomethyl)phenyl)-1H-pyrrolo[3,2-c]pyridin-2-yl)-1H-pyrazolo[4,3-b]pyridin-5-yl)pyridin-3-yl)-2-phenylacetamide]	< 5.00	< 5.00	37.1	28.5
